Values quoted from earlier work, collected in patent publication US6689394B2, “Removal of ectoparasites” (Schering-Plough HealthCare Products, Inc., priority 2001, dated 2004).

Tested on: head lice
Details: comparison of published results for topical pesticidal treatments

CC1(C)C(C=C(Cl)Cl)C1C(=O)OCc1cccc(Oc2ccccc2)c1 (stereo not shown) [Permethrin]
evidence of clinical efficacy: sufficient evidence of efficacy
